Each structure is given as a SMILES string.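 Each compound was tested at five concentrations against cells in 96-well plates for 48 hours. At the GI50, growth is halved.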 Calls of active or inactive are those of the source. Cut-off read from the data, not from the text of the source: active = GI50 up to about 1.1 µM and inactive = higher. A value given as a limit tells only on which side of the number the result lay.

From ChEMBL document CHEMBL1201862, “PubChem BioAssay data set” (2004) come the findings set out here.

Some test systems named below: A549; HCC 2998; HL-60; HOP-62; HT-29; IGROV-1; K562; LOX IMVI; MDA-MB-231; MOLT-4; NCI-H522; OVCAR-3; OVCAR-4; SK-MEL-28; SNB-19; SNB-75; SW-620; T47D; U-251; SK-OV-3.
What all share (experiment): NCI anticancer screen, dose series, 48 h

Consider `CC[C@@H](C)[C@H]([C@H](CC(=O)N1CCC[C@@H]1[C@@H](OC)[C@H](C)C(=O)N[C@H](Cc1ccccc1)c1nccs1)OC)N(C)C(=O)[C@H](NC(=O)[C@@H](C(C)C)N(C)C)C(C)C`, for which the GI50 with A549 was 0.000121 µM (active); in the experiment on HCC 2998 it was 0.00029 µM (active); in the experiment on HL-60 it was 3.51e-05 µM (active); with HOP-62 it was 0.000193 µM (active); with HT-29 it was 2.24e-05 µM (active); in the experiment with IGROV-1, 0.000681 µM (active). Also, the GI50 in the experiment on K562 is 6.93e-05 µM (active); in the experiment on LOX IMVI it was 0.000161 µM (active); in the experiment with MDA-MB-231 it was < 0.01 µM (active); with MOLT-4, 0.000229 µM (active); in the experiment on NCI-H522, < 0.01 µM (active); in the experiment with OVCAR-3, 3.11e-05 µM (active). Also, the GI50 with OVCAR-4 was 0.000745 µM (active); with SK-MEL-28, 0.00069 µM (active); with SNB-19 it was 0.000267 µM (active); in the experiment on SNB-75 it was 0.000161 µM (active); in the experiment with SW-620, 9.12e-05 µM (active); in the experiment with T47D, > 77.6 µM (inactive). Also, the GI50 with U-251 was 0.000249 µM (active).
With `COc1ccc2c3c([nH]c2c1)[C@H]1C[C@H]2[C@H](C[C@@H](O)[C@H](OC)[C@H]2C(=O)O)CN1CC3`, the GI50 with A549, in the experiment with HCC 2998, in the experiment on HOP-62, with HT-29, in the experiment with IGROV-1 and with K562 was > 100 µM (inactive) throughout. Also, the GI50 in the experiment on LOX IMVI, in the experiment on MDA-MB-231, with MOLT-4, in the experiment with NCI-H522, with OVCAR-3 and with OVCAR-4 was > 100 µM (inactive) throughout. The GI50 in the experiment on SK-MEL-28, with SK-OV-3, in the experiment with SNB-19, with SNB-75, in the experiment with SW-620 and with T47D was > 100 µM (inactive) each time. Moreover, the GI50 in the experiment on U-251 was > 100 µM (inactive).
With `O=C1c2scnc2-c2nccc3c2c1nc1ccccc13` [KUANONIAMINE A], the GI50 was 1.51 µM (inactive) in the experiment with A549; 1.15 µM (inactive) in the experiment on HCC 2998; 1.04 µM (active) with HOP-62; 2.55 µM (inactive) in the experiment on HT-29; 0.774 µM (active) with IGROV-1; 0.682 µM (active) with K562. For the same molecule, the GI50 in the experiment on LOX IMVI was 0.172 µM (active); in the experiment with MDA-MB-231, 0.318 µM (active); in the experiment on MOLT-4, 0.469 µM (active); with NCI-H522 it was 0.0169 µM (active); with OVCAR-3, < 0.0134 µM (active); in the experiment on OVCAR-4, 1.16 µM (inactive). The GI50 in the experiment on SK-MEL-28 was 1.65 µM (inactive); in the experiment with SK-OV-3, 2.54 µM (inactive); with SNB-19, 0.389 µM (active); in the experiment on SNB-75 it was 0.94 µM (active); in the experiment with SW-620 it was 0.288 µM (active); in the experiment on T47D, 0.215 µM (active). Moreover, in the experiment on U-251, the GI50 is 0.268 µM (active).
As for `O=C1NN=C(O)C2C3c4ccccc4C(c4ccccc43)C12` (configuration not stated), the GI50 with A549, in the experiment with HCC 2998, in the experiment with HL-60, with HOP-62, in the experiment with HT-29 and in the experiment with IGROV-1 was > 100 µM (inactive) throughout. For the same molecule, the GI50 with K562, in the experiment on LOX IMVI, with MDA-MB-231, in the experiment with MOLT-4, with OVCAR-3 and with OVCAR-4 was > 100 µM (inactive) throughout. Further, the GI50 with SK-MEL-28, in the experiment with SK-OV-3, in the experiment on SNB-19, in the experiment on SNB-75, in the experiment with SW-620 and in the experiment with T47D was > 100 µM (inactive) throughout. For the same molecule, the GI50 in the experiment with U-251 is > 100 µM (inactive).
`O=C(O)c1cnc2cc(OCc3ccccc3)ccc2c1O`: the GI50 is 19.5 µM (inactive) in the experiment on A549; 18.3 µM (inactive) with HCC 2998; 0.256 µM (active) in the experiment with HL-60; 20.7 µM (inactive) with HOP-62; 19.2 µM (inactive) with HT-29; 18.3 µM (inactive) with IGROV-1. Besides, the GI50 with K562 was 23.6 µM (inactive); in the experiment with MDA-MB-231, 20.6 µM (inactive); in the experiment with MOLT-4 it was 31.2 µM (inactive); in the experiment on NCI-H522, 16.5 µM (inactive); with OVCAR-3, 20.7 µM (inactive); with OVCAR-4, 16.6 µM (inactive). The GI50 with SK-MEL-28 is 16 µM (inactive); in the experiment with SK-OV-3, 22.1 µM (inactive); in the experiment on SNB-19 it was 17.7 µM (inactive); in the experiment with SNB-75, 15.7 µM (inactive); in the experiment on SW-620, 19.2 µM (inactive); in the experiment with T47D, 17.8 µM (inactive). The GI50 in the experiment on U-251 is 18.6 µM (inactive).
As to `OC/C=C/[C@H](OCc1ccccc1)[C@H](/C=C/CO)OCc1ccccc1`, the GI50 is 30.3 µM (inactive) in the experiment on A549; 50.2 µM (inactive) with HCC 2998; 49.7 µM (inactive) in the experiment on HOP-62; 24.3 µM (inactive) in the experiment with HT-29; 42.5 µM (inactive) in the experiment on IGROV-1; 24.8 µM (inactive) in the experiment with K562. In addition, the GI50 was 20.4 µM (inactive) with LOX IMVI; 50.4 µM (inactive) in the experiment on MDA-MB-231; 13.7 µM (inactive) with MOLT-4; 37.3 µM (inactive) in the experiment with NCI-H522; 39.7 µM (inactive) with OVCAR-3; 29.8 µM (inactive) with OVCAR-4. Also, the GI50 in the experiment with SK-MEL-28 is 35.8 µM (inactive); in the experiment with SK-OV-3, > 100 µM (inactive); with SNB-19 it was 31.2 µM (inactive); with SNB-75, 32.7 µM (inactive); in the experiment on SW-620 it was 39.9 µM (inactive); with T47D, 23.7 µM (inactive). For the same molecule, the GI50 with U-251 was 24.5 µM (inactive).
With `CC(C)(C)c1ccc2c(c1)OCc1n[nH]c(n1)COc1cc(C(C)(C)C)ccc1OCCOCCO2`, the GI50 is 3.01 µM (inactive) in the experiment with A549; 3.72 µM (inactive) in the experiment with HCC 2998; 4.35 µM (inactive) in the experiment on HL-60; 5.62 µM (inactive) with HOP-62; 3.01 µM (inactive) with HT-29; 5.69 µM (inactive) in the experiment with IGROV-1. In addition, the GI50 in the experiment on K562 is 4.27 µM (inactive); with MDA-MB-231, 9.48 µM (inactive); in the experiment on MOLT-4, 3.67 µM (inactive); in the experiment with NCI-H522 it was 2.4 µM (inactive); with OVCAR-3, 2.53 µM (inactive); in the experiment with OVCAR-4, 0.248 µM (active). Besides, the GI50 in the experiment on SK-MEL-28 was 2.7 µM (inactive); in the experiment on SK-OV-3 it was 3.77 µM (inactive); in the experiment on SNB-19, 4.23 µM (inactive); in the experiment with SNB-75 it was 5.27 µM (inactive); with SW-620, 3.16 µM (inactive); with T47D, 3.48 µM (inactive). Also, the GI50 in the experiment on U-251 was 2.8 µM (inactive).
Consider `CCOC(=O)c1nc2ccc(C(F)(F)F)cc2nc1Oc1ccc(F)cc1`, for which the GI50 with HCC 2998 is > 100 µM (inactive); in the experiment with HL-60 it was > 100 µM (inactive); with HOP-62, > 100 µM (inactive); in the experiment on HT-29, > 100 µM (inactive); in the experiment on IGROV-1, > 100 µM (inactive); with K562, 42.3 µM (inactive). Moreover, the GI50 in the experiment on LOX IMVI, in the experiment on MDA-MB-231, in the experiment with MOLT-4, in the experiment with OVCAR-4, with SK-MEL-28 and with SK-OV-3 was > 100 µM (inactive) each time. For the same molecule, the GI50 in the experiment on SNB-19, in the experiment on SNB-75, in the experiment on SW-620, in the experiment on T47D and in the experiment with U-251 was > 100 µM (inactive) throughout.
For `C[N+](C)(N)Cc1csc(-c2ccc(Cl)cc2)n1`, the GI50 in the experiment with A549 was 71.8 µM (inactive); in the experiment with HCC 2998, > 100 µM (inactive); in the experiment on HOP-62 it was 75.7 µM (inactive); in the experiment with HT-29, > 100 µM (inactive); with IGROV-1, > 100 µM (inactive); in the experiment with K562 it was > 100 µM (inactive). Besides, the GI50 with LOX IMVI was > 100 µM (inactive); with MDA-MB-231, > 100 µM (inactive); in the experiment with NCI-H522, 62.4 µM (inactive); in the experiment with OVCAR-3, 89.5 µM (inactive); in the experiment on OVCAR-4, > 100 µM (inactive); in the experiment with SK-MEL-28, > 100 µM (inactive). Also, the GI50 in the experiment on SK-OV-3 was > 100 µM (inactive); with SNB-19, > 100 µM (inactive); in the experiment on SNB-75 it was 42.4 µM (inactive); in the experiment on SW-620, > 100 µM (inactive); in the experiment on T47D, 80 µM (inactive); with U-251, > 100 µM (inactive).
Consider `CCOC(=O)C1(C/C=C\CBr)CCCCCCCCCCC1=O` (configuration not stated), for which the GI50 in the experiment with A549 is 18 µM (inactive); with HCC 2998, 16 µM (inactive); in the experiment on HOP-62 it was 18.2 µM (inactive); with HT-29 it was 4.38 µM (inactive); with IGROV-1 it was 2.94 µM (inactive); with K562, 3.95 µM (inactive). Further, the GI50 was 0.428 µM (active) in the experiment with LOX IMVI; 3.36 µM (inactive) in the experiment with MDA-MB-231; 3.56 µM (inactive) in the experiment with MOLT-4; 0.497 µM (active) in the experiment with NCI-H522; 2.09 µM (inactive) with OVCAR-3; 10.6 µM (inactive) in the experiment with OVCAR-4. The GI50 with SK-MEL-28 is 15.7 µM (inactive); with SK-OV-3, 16.8 µM (inactive); with SNB-19, 14.3 µM (inactive); in the experiment on SNB-75, 12.4 µM (inactive); in the experiment on SW-620, 13.5 µM (inactive); in the experiment with T47D, 12.1 µM (inactive). In addition, the GI50 in the experiment with U-251 was 7.01 µM (inactive).
For `COc1cc(C2S/C(=C/c3ccccc3)C(=O)N2c2cccc([N+](=O)[O-])c2)cc(OC)c1OC` (configuration not stated), the GI50 in the experiment with A549 was > 100 µM (inactive); with HCC 2998, > 100 µM (inactive); in the experiment on HOP-62, > 100 µM (inactive); with HT-29 it was 50.1 µM (inactive); in the experiment with K562, 51.5 µM (inactive); with LOX IMVI, 40.8 µM (inactive). For the same molecule, the GI50 in the experiment with MDA-MB-231 is 51.8 µM (inactive); in the experiment with MOLT-4, 70.3 µM (inactive); with NCI-H522, 38.5 µM (inactive); with OVCAR-4 it was 83.2 µM (inactive); in the experiment with SK-MEL-28, > 100 µM (inactive); in the experiment on SK-OV-3, > 100 µM (inactive). In addition, the GI50 with SNB-19 is > 100 µM (inactive); with T47D, 0.156 µM (active); in the experiment on U-251, 27.5 µM (inactive).
